Test [1] has as its system PHD enzymes in HeLa cells. Description: HIFα Western blot in HeLa cells (activity of PHD enzymes in cells). The class given is cell-based, human. Particulars: HeLa cells treated 5 h, anti-HIF-1α Western blot. As to the method:
supplemented with 80 µM Zn(II), 70 µM of inhibitor, all in 50 mM Tris-d11, pH 7.5, 10 % D2O, […]
Cell Culture and Immunoblotting
HeLa cells were cultured in DMEM media supplemented with 10 % fetal bovine serum, 4 mM L-glutamine, 100 U/mL penicillin, and 100 µg/mL streptomycin. Cells were treated with the indicated compounds, prepared in 1% DMSO, for 5 h. Following a PBS buffer rinse, cells were lysed in urea/SDS buffer supplemented with 1 mM dithiothreitol. Cell extracts were analyzed by SDS-PAGE, electroblotted onto PVDF membranes (Millipore) and probed with anti-HIF-1α antibody (clone 54, BD Transduction Laboratories) at 1:1000 dilution for 1 h at room temperature. The HRP-conjugated secondary antibody was then applied at room temperature for 1 h. Target proteins were detected with SuperSignal Chemiluminescent […]
ADMET in vitro Predictors
S9 liver microsome stability assays and MDCK-MDR1 efflux assays were carried out for CCT3 and CCT4 by Cyprotex (UK). Additional details are provided later in the Supporting
On the technique in general: In western blotting, separated proteins are transferred to a membrane and probed.

For a further test, the target named is T1, PHD2 (Homo sapiens, UniProt Q9GZT9).
T1 construct: 181-426 or OGFOD1
T1 sequence (Q9GZT9 181-426 limits assumed): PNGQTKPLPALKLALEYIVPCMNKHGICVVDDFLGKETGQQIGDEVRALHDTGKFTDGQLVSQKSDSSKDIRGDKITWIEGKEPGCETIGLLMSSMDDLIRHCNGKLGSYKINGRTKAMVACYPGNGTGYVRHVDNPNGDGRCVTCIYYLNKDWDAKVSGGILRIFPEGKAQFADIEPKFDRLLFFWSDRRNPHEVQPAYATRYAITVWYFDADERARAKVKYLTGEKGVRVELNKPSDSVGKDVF
The test can be described thus: 2OG displacement from PHD2 by CPMG-edited 1H NMR. It is filed as binding. Particulars: 10 µM 2OG, 10 µM PHD2, 70 µM inhibitor. As to the method:
total echo time of 40 ms, a relaxation delay of 2 s, with 256 scans. Water suppression was achieved by presaturation. Samples contained 30 µM apo-PHD2181-426 or OGFOD1, supplemented with 60 µM Zn(II), 30 µM of inhibitor, all in 50 mM Tris-d11, pH 7.5, 10 % D2O, […]
wLOGSY Binding Experiments: For water-ligand observed gradient spectroscopy (wLOGSY) analyses, typical experimental parameters were the following: mixing time, 1 s; relaxation delay, 2 s; number of transients, 512. Solvent excitation was achieved using a 16-ms 180° selective rectangular shape pulse with 1,000 points (Squa100.1000) set at the H2O frequency. […]
Competition Experiments by 2OG Displacement: 2OG displacement assays[12] were performed using CPMG-edited 1H spectra. […] The 2OG methylene resonance at 2.35 ppm was monitored. […]
HeLa cells were cultured in DMEM media supplemented with 10 % fetal bovine serum, 4 mM L-glutamine, 100 U/mL penicillin, and 100 µg/mL streptomycin. […] Cell extracts were analyzed by SDS-PAGE, electroblotted onto PVDF membranes (Millipore) and probed with anti-HIF-1α antibody (clone 54, BD Transduction Laboratories) at 1:1000 dilution for 1 h at room temperature. […] Target proteins were detected with SuperSignal Chemiluminescent […]
Figure S15. Single-concentration qualitative 2OG displacement as monitored by CPMG-edited 1H NMR spectroscopy. […]

Structures are written as SMILES.

The record followed here is publication PMC6471485, “Selective Inhibitors of a Human Prolyl Hydroxylase (OGFOD1) Involved in Ribosomal Decoding” (Chemistry (Weinheim an Der Bergstrasse, Germany), 2019).

For `Cn1c(O)c(C(=O)CCc2cccs2)c(=O)n(C)c1=O` [compound 42], in test [1], the “HIFα stabilization in HeLa cells, in words” value was “did not stabilize HIFα”. Further, the “displacement of bound 2OG from PHD2, in words” value on PHD2 is listed as “not from that of PHD2”.
As to `Cn1c(O)c(C(=O)CCc2ccccc2)c(=O)n(C)c1=O` [compound 26], the “HIFα stabilization in HeLa cells, in words” value in test [1] is listed as “did not stabilize HIFα”. The “displacement of bound 2OG from PHD2, in words” value on PHD2 was “not from that of PHD2”.
